Results published in ChEMBL document CHEMBL1201862, “PubChem BioAssay data set” (2004).
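1) Cells in 96-well plates. 2) Compound, 48 h, 5 concentrations. 3) Linear interpolation between surrounding doses. 4) Unreached endpoint = highest concentration. At the GI50, growth is halved.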 Calls of active or inactive are those of the source. Cut-off read from the data, not from the text of the source: active = GI50 up to about 1.1 µM and inactive = higher.

Experiments:
Assay in all cases: NCI anticancer screen, dose series, 48 h
[1] = test system: CCRF-CEM
[2] = test system: MDA-N
[3] = test system: MDA-MB-231
[4] = test system: A498
[5] = test system: SN12C
[6] = test system: SF-295
[7] = test system: HCT-15
[8] = test system: MCF7
[9] = test system: MOLT-4
[10] = test system: BT-549
[11] = test system: U-251
[12] = test system: TK-10
[13] = test system: UACC-257
[14] = test system: NCI-H23
[15] = test system: HCC 2998
[16] = test system: KM12
[17] = test system: SK-MEL-5
[18] = test system: HCT-116
[19] = test system: SR
[20] = test system: HT-29

Row | SMILES | GI50 [1] | GI50 [2] | GI50 [3] | GI50 [4] | GI50 [5] | GI50 [6] | GI50 [7] | GI50 [8] | GI50 [9] | GI50 [10] | GI50 [11] | GI50 [12] | GI50 [13] | GI50 [14] | GI50 [15] | GI50 [16] | GI50 [17] | GI50 [18] | GI50 [19] | GI50 [20]
1 | O=C1CCC(c2ccccc2)=NN1c1nc2ccccc2s1 | 23.1 µM (inactive) | 27.9 µM (inactive) | 20.9 µM (inactive) | 30.1 µM (inactive) | 29.4 µM (inactive) | 25.7 µM (inactive) | 29.6 µM | 27 µM (inactive) | 28 µM (inactive) | 27.6 µM (inactive) | 29.4 µM (inactive) | 35.8 µM (inactive) | 27.2 µM (inactive) | 30.2 µM (inactive) | 26.9 µM (inactive) | 29.6 µM (inactive) | 20.4 µM (inactive) | 29.5 µM (inactive) | 29.7 µM (inactive) | 37.4 µM (inactive)
2 | Cc1nc2c(C)c3c([nH]c4ccc(Cl)cc43)c(C)c2c(O)c1C | 2.91 µM (inactive) | 6.73 µM (inactive) | 2.44 µM (inactive) | 15.3 µM (inactive) | 5.24 µM (inactive) | 5.89 µM (inactive) | 3.21 µM | 2.2 µM (inactive) | 1.63 µM (inactive) | 14.9 µM (inactive) | 5.73 µM (inactive) | 7.33 µM (inactive) | 13.9 µM (inactive) | 4.68 µM (inactive) | 6.46 µM (inactive) | 10.4 µM (inactive) | 11.8 µM (inactive) | 4.29 µM (inactive) | 2.19 µM (inactive) | 4.37 µM (inactive)
3 | CC(C)=CCC[C@@H](C)C1=C(O)C(=O)C(C)=C(N)C1=O | 6.11 µM (inactive) | 24.6 µM (inactive) | 46.5 µM (inactive) | 39.8 µM (inactive) | 35.5 µM (inactive) | 12.9 µM (inactive) | 4.85 µM | 50.8 µM (inactive) | 6.5 µM (inactive) | 42.2 µM (inactive) | 34.8 µM (inactive) | 50.2 µM (inactive) | 38.5 µM (inactive) | 27.3 µM (inactive) | 59.6 µM (inactive) | 23.3 µM (inactive) | 20.4 µM (inactive) | 45.1 µM (inactive) | 16.7 µM (inactive) | 40.8 µM (inactive)
4 | COc1ccc2/c(=C/c3ccc(N(C)C)cc3)c3cc(-c4ccccc4)[n+](C)n3c2c1 | 0.395 µM (active) | 0.0889 µM (active) | 0.31 µM (active) | 0.408 µM (active) | 0.223 µM (active) | 0.194 µM (active) | 1 µM | 0.126 µM (active) | 0.18 µM (active) | 0.0957 µM (active) | < 0.0318 µM (active) | 0.239 µM (active) | 0.135 µM (active) | 0.158 µM (active) | 0.115 µM (active) | 0.192 µM (active) | 0.0392 µM (active) | 0.17 µM (active) | 0.092 µM (active) | 0.104 µM (active)
5 | C[C@H](CCC(=O)NCC(=O)O)[C@H]1CC[C@H]2[C@@H]3[C@H](O)C[C@@H]4C[C@H](O)CC[C@]4(C)[C@H]3CC[C@]12C | > 100 µM (inactive) | > 100 µM (inactive) | > 100 µM (inactive) | > 100 µM (inactive) | > 100 µM (inactive) | > 100 µM (inactive) | > 100 µM | > 100 µM (inactive) | > 100 µM (inactive) | > 100 µM (inactive) | > 100 µM (inactive) | > 100 µM (inactive) | > 100 µM (inactive) | > 100 µM (inactive) | > 100 µM (inactive) | > 100 µM (inactive) | > 100 µM (inactive) | > 100 µM (inactive) | > 100 µM (inactive) | > 100 µM (inactive)
